Results taken from patent US6787356B1, “Cell expansion system for use in neural transplantation” (The United States of America as represented by the …, priority 1998, dated 2004).

How the values were obtained:
[1] = system: E12 mesencephalic precursors; test: Dopaminergic differentiation of long-term expanded mesencephalic precursors, TH-ir cell count per well; assay type: cell-based, rat; details: for effect of antioxidants on dopaminergic cell number: FIG. 5, FIG. 6
Description: Ascorbic acid was obtained from SIGMA (A-1417: Lot 105H0138) and used at various concentrations ranging from 1 nM-1 mM to obtain a dose-response curve. The effect of ascorbic acid on dopaminergic differentiation of long-term expanded mesencephalic precursors was tested during early and late proliferation as well as during cell differentiation.
Briefly, E12 mesencephalic precursors were proliferated for 12-14 days in vitro with 20 ng/ml bFGF (average expansion factor 40-200 fold) followed by 4-7 days of differentiation upon bFGF withdrawal and exposure to the various differentiation agents refers to the experimental assay in general. We tested the effects of many possible differentiation agents such as NGF, BDNF, NT3, NT4/5, GDNF, SHH, FGF8, interleukin1, Neurturin, cGMP and many others.
Cells were treated with 100 uM ascorbic acid. Ascorbic acid was dissolved in PBS with 0.1% bovine serum albumin at 100 mM stock solution. It was then used in 1:1000 dilution by adding it directly into the culture medium Cells were then fixed in 0.15% picric acid/4% paraformaldehyde and stained for tyrosine-hydroxylase (PelFreeze P40101-0). The number of TH-ir cells per well were scored using a stereological counting frame.
A dose response curve of the effect of stereoisomer D-iso-ascorbic acid was established using D-iso Ascorbic acid (I-0502 SIGMA). D-iso-ascorbic acid was used with the same protocol as L-ascorbic acid regarding stock solution, concentrations and mode of application. D-iso ascorbic acid has the same anti-oxydative properties but different other biological properties than ascorbic acid.

[2] = system: bFGF expanded precursor derived TH+ neurons; test: Dopamine release of precursor derived TH+ neurons, reverse phase HPLC with electrochemical detection; assay type: cell-based, rat; details: conditioned medium, buffer solution, buffer + 56 mM KCl; FIG. 7 and 8
Description: To test the biochemical function of precursor derived tyrosine hydroxylase expressing (TH+) neurons, the supernatant was tested for dopamine release using reverse phase HPLC with electrochemical detection. Dopamine levels were assessed in conditioned medium (24 hours of incubation), HBSS buffer (15 minutes), HBSS buffer +56 mM KCl. Dopamine was subsequently extracted by aluminum absorption and measured by reverse phase HPLC with electrochemical detection.

[3] = system: differentiated mesencephalic precursor culture; test: Oxidative stress assays (lipid peroxydation, H2O2, oxidative stress marker staining); assay type: cell-based, rat; details: data not shown
Description: Lipid peroxydation is a colorimetric assay (OXIS BIOXYTECH® LPO-568™; Oxis International Inc.) and was used according to the specifications of the manufacturer. H2O2 assay measures the conversion of 2′,7′ dicholorofluorescin diacetate (Molecular Probes d-399) into 2′,7′ dicholorofluorescin catalyzed by H2O2. The assay was performed according to the specifications of the manufacturer. Immunohistochemistry for oxidative stress markers by the DAB-peroxidase technique was performed on cells differentiated in the presence or absence of ascorbic acid, glutathione or […] plus ebselin.

[4] = system: mesencephalic precursors expanded with bFGF for 11 days; details: dopamine 1 nM-1 mM; cAMP 1 mM; DMEM/F12/N2
[5] = system: expanded and differentiated mesencephalic precursors; test: KCl evoked dopamine release of differentiated expanded precursors, HPLC; assay type: cell-based, rat
Description: Tissue culture was prepared as described in Example 1. The growth medium of expanded precursors from 3 independent culture series was collected after 5-7 days of differentiation under serum-free conditions and immediately stabilized by adding 88 μl of 85% orthophosphoric acid and 4.4 mg of metabisulfite to each sample ml. Additional cultures of the same series were placed in 5 ml Hank's basic salt solution (HBSS) for […] at 37° C. either under basal conditions (HBSS only) or under stimulation with 56 mM KCl. 56 mM KCl was added to assay evoked release, i.e., dopamine release in response to depolarization by KCl (depolarization by KCl leads to release of synaptic vesicles in neurons). This provides a more specific test than release in HBSS where synaptic release is not directly tested.
Dopamine staining was carried out on cultures using dopamine polyclonal 1:500 (Chemicon). The cultures were fixed in 5% glutaraldehyde and 1% metabisulfite in Tris buffer and then kept in metabisulfite containing solutions prior to incubation in the secondary antibody. Dopamine was extracted by aluminum adsorption as described by Studer et al. (1996) Brain Res.Bull. 41, 143-150. […] No dopamine was detected in unconditioned control medium and HBSS.

[6] = system: ventral mesencephalon cells of E12 rat embryos; test: Tissue culture expansion of mesencephalic precursors with bFGF; assay type: cell-based; details: from 800×10^3 cells; 10-20 ng bFGF/ml medium daily; N=12
Description: Tissue was obtained from the ventral mesencephalon of E12 rat embryos (Sprague Dawley, plug day=day 0,) as described by Studer et al. in Current Protocols in Neuroscience (eds McKay, R. D. & Gerfen, C. R.) John Wiley & Sons Inc., New York, (1997).
Tissue pieces were spun in a centrifuge at 209 g for 5 minutes and mechanically triturated to a quasi single cell suspension in HBSS and counted. 5 ml of cell suspension at a concentration of 150-200×10^3 cells/ml was plated on a 10 cm culture dish containing DMEM/F12/N2 medium (Bottenstein, J. E. & Sato, G. H. Growth of a rat neuroblastoma cell line in serum-free supplemented medium. Proc.Natl.Acad.Sci.USA 76, 514-517 (1979) (modified according to Johe, K. K., Hazel, T. G., Müller, T., Dugich-Djordjevic, M. M. & McKay, R. D. G. Single factors direct the differentiation of stem cells from the fetal and adult central nervous system. Genes and Development 10, 3129-3140 (1996)) that had been previously coated with polyornithine (15 ug/ml) and fibronectin (1 ug/ml).
bFGF was added to the culture medium on a daily basis to a final concentration of 10-20 ng bFGF/ml medium. The medium was changed every other day.
Additionally, after treatment with bFGF all surviving cells were immunoreactive for the nestin intermediate filament a marker for immature neuroepithelial precursors. […]

[7] = system: expanded mesencephalic precursors differentiated as free floating reaggregates; test: Reaggregation system (roller drum) differentiation, immunohistochemistry of reaggregates; assay type: cell-based, rat; details: for total number of TH-ir cells/sphere in serum-supplemented medium: GDNF, BDNF, NT4/5 10 ng/ml, SHH 2.5 μg/ml, data not shown
Description: Cells were cultured as described in Example 1 and differentiated as free floating aggregates in a medium containing 10% fetal bovine serum (FBS) and maintained in a roller drum system. The cell suspension (200,000 cells/ml) was distributed in 15 ml Falcon tubes (1 ml/tube) and placed in a roller drum (Bellco) and rotated at a speed of 1-4 revolutions per minute and a temperature of 37° C. in a dry incubator (no additional humidity) in an atmosphere containing 5% CO2.
Medium in all these experiments described in this section was Neurobasal/B27 as described above. We tested the effect of GDNF, BDNF, SHH in the presence and in the absence of 10% fetal bovine serum (always with Neurobasal/B27 medium as a “basal medium”)
After 7 days, the test tubes were removed from the roller drum and the reaggregation of the cells was examined immunohistochemistry after sectioning the cells (see below). […] Reaggregates were fixed in 4% paraformalehyde/0.15 picric acid in PBS for 30-60 minutes at room temperature, equilibrated in 30% sucrose, cut into 20 um thick sections on a freezing microtome and adhered to a gelatine precoated glass carrier according to standard histological guidelines.
The differentiation medium for reaggregate cultures consisted of Neurobasal®/2% B27® (Gibco, Life Technologies) with or without fetal bovine serum (FBS; 10%, Gibco), glial derived neurotrophic factor (GDNF; 10 ng/ml; Peprotech), brain derived neurotrophic factor (BDNF; 10 ng/ml; Peprotech), neurotrophin 4/5 (NT4/5; 10 ng/ml; Peprotech), SHH (2.5 μg/ml; kindly provided by Dr. Thomas Muller, at the Labrotory of Molecular Biology, currently at the Max Delbrueck Univ. in Berlin; SHH is now commercially avail. fro R&D).
Using standard immunohistochemical procedures known to those of skill in the art, the following antibodies were used to examine the neuronal phenotypes present in differentiated aggregates: GABA polyclonal 1:2000 (SIGMA), serotonin polyclonal 1:8000 (SIGMA), ChAT polyclonal 1:500 (Chemicon), GFAP polyclonal 1:100 (Chemicon), GalC monoclonal 1:50 (Boehringer-Mannheim),
Total graft volume was estimated using the Cavalieri's estimator as described by Gundersen et al. (1988) APIMS 96, 379-394. TH-ir cells were counted within the outlined graft area as used for volume estimation. Uniform randomly chosen sections of individual reaggregates were analyzed for the total number of TH-ir cells by means of a stereological grid (fractionator). Conventional and confocal images were obtained with Axiophot and Axiovert microscopes respectively (Zeiss). Confocal image stacks were acquired by single and dual wavelength excitation at 488 and 568 nm. […] The effect of serum and growth factors was analyzed using ANOVA and Dunnett posthoc comparisons. […]

## CC(=O)N[C@H](CS)C(=O)O [D-acetylcystein]
[1]
  effect of antioxidants on dopaminergic cell number: none of the antioxidants tested influenced dopaminergic cell number

## O=C1O[C@H]([C@@H](O)CO)C(O)=C1O [ascorbic acid]
[2]
  dopamine levels after treatment, long-term expanded precursors (P1): significant increase
  dopamine levels after treatment, short term expanded precursors (Po): significant increase
[3]
  differences to control in lipid peroxydation, H2O2 levels and staining intensity for oxydative stress markers: No significant differences
[1]; 100 uM, 12-14 days expansion, 4-7 days differentiation
  yield of dopaminergic neurons compared with other differentiation agents tested: most effective agent of all agents tested
[1]; FIG. 6
  effect on dopaminergic yield, treatment during cell differentiation (P1 diff.): acts mostly during the differentiation phase
  effect on dopaminergic yield, treatment during early expansion (Po exp.): small improvement in dopaminergic yield
  effect on dopaminergic yield, treatment during late expansion (P1 exp.): slightly negative effect
[1]; during cell differentiation, range 1 nM-1 mM, FIG. 5
  concentration of maximal effect on TH-ir cell number (dose-response): 100 µM

## O=C1O[C@H]([C@H](O)CO)C(O)=C1O [D-iso ascorbic acid, D-iso-ascorbic acid]
[1]; optimum concentration of 100 μM
  number of dopaminergic neurons, lower than in the ascorbic acid group: 48%

## NCCc1ccc(O)c(O)c1 [dopamine]
[4]
  additional effect on yield of dopaminergic neurons in combination with ascorbic acid (100 uM): no significant additional effect

## [Cl-].[K+] [KCl]
[5]; 56 mM KCl in HBSS for 25 minutes vs HBSS only
  increase in dopamine levels in the supernatant: 3-4 fold
[5]; 56 mM KCl in HBSS for 25 minutes, N=3
  dopamine level in the supernatant, evoked release: 572+/−145 pg dopamine/ml

## O=c1c2ccccc2[se]n1-c1ccccc1 [ebselin]
[1]
  effect of antioxidants on dopaminergic cell number: none of the antioxidants tested influenced dopaminergic cell number

## N[C@@H](CCC(=O)N[C@@H](CS)C(=O)NCC(=O)O)C(=O)O [glutathione]
[1]
  effect of antioxidants on dopaminergic cell number: none of the antioxidants tested influenced dopaminergic cell number

## bFGF: basic fibroblast growth factor, added to proliferating medium to expand precursor cells
[6]
  cell number after 1 week of treatment with bFGF: 7,417×10^3+/−1,066×10^3 cells

B1: NT4/5: neurotrophin 4/5, Peprotech (protein, UniProt P34130 81-210, looked up)
Neurotrophin-4: GVSETAPASRRGELAVCDAVSGWVTDRRTAVDLRGREVEVLGEVPAAGGSPLRQYFFETRCKADNAEEGGPGAGGGGCRGVDRRHWVSECKAKQSYVRALTADAQGRVGWRWIRIDTACVCTLLSRTGRA
[7]
  total number of TH-ir cells/sphere in serum-supplemented medium: did not cause a significant increase

B2: BDNF: brain derived neurotrophic factor, Peprotech (protein, UniProt P23560 19-247, looked up)
Neurotrophic factor BDNF …: APMKEANIRGQGGLAYPGVRTHGTLESVNGPKAGSRGLTSLADTFEHVIEELLDEDQKVRPNEENNKDADLYTSRVMLSSQVPLEPPLLFLLEEYKNYLDAANMSMRVRRHSDPARRGELSVCDSISEWVTAADKKTAVDMSGGTVTVLEKVPVSKGQLKQYFYETKCNPMGYTKEGCRGIDKRHWNSQCRTTQSYVRALTMDSKKRIGWRFIRIDTSCVCTLTIKRGR
[7]
  total number of TH-ir cells/sphere in serum-supplemented medium: did not cause a significant increase

B3: GDNF: glial derived neurotrophic factor, Peprotech (protein, UniProt P39905 78-211, looked up)
Glial cell line-derived …: SPDKQMAVLPRRERNRQAAAANPENSRGKGRRGQRGKNRGCVLTAIHLNVTDLGLGYETKEELIFRYCSGSCDAAETTYDKILKNLSRNRRLVSDKVGQACCRPIAFDDDLSFLDDNLVYHILRKHSAKRCGCI
[7]; GDNF 10 ng/ml, N=8, p<0.05 vs control
  TH-ir cell yield under serum-free conditions: 3451+/−621
[7]
  total number of TH-ir cells/sphere in serum-supplemented medium: did not cause a significant increase
